From patent publication US12479827B2, “Heteroaromatic carboxamide derivatives as plasma kallikrein inhibitors” (Boehringer Ingelheim International GmbH, priority 2020, dated 2025) come the findings set out here.

pIC50: −log10 of the molar value. Some results are limits rather than exact numbers.

The target of one experiment is T1, Human PKK (Homo sapiens, UniProt P03952).
T1 construct: purchased Enzyme Research Laboratories
The experiment in a line: Inhibition of PKK using an endpoint assay (human PKK). The experiment is classed as biochemical. The conditions noted are these: fluorogenic substrate H-Pro-Phe-Arg-AMC, 1 h room temperature, method names human or rat PKK, table does not say which. An outline of the steps: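 Human PKK inhibition measured in 100 mM Tris, 150 mM NaCl, pH 7.8, 0.1% BSA, 0.05% Tween20, 1% DMSO. Endpoint format: reaction stopped with PPACK II at 1 μM final, fluorescence read at 355 nm excitation/460 nm emission.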

The target of experiment [1] is T2, PKK in kaolin activated human platelet poor plasma (Homo sapiens, UniProt P03952).
T2 construct: Platelet poor plasma (PPP) obtained from human wholeblood; from tissue
The experiment is described as follows: Inhibition of PKK in kaolin activated human PPP.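 Further: readout is the rate of fluorogenic substrate cleavage in rfu per min.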 The conditions noted are these: 25-750 μg/mL kaolin, global fit, text b200 calls the values IC90. It is filed as biochemical. Here is the method: Platelet poor plasma (PPP) obtained from human wholeblood, anticoagulated with Na-Citrate, is incubated with various concentrations of the test compound together with either 25, 75, 250, or 750 μg/mL kaolin in assay buffer for 20 min at 37° C. such that for each kaolin dose used a concentration response is obtained for the test compound.

T2 sequence (P03952 391-638 limits assumed): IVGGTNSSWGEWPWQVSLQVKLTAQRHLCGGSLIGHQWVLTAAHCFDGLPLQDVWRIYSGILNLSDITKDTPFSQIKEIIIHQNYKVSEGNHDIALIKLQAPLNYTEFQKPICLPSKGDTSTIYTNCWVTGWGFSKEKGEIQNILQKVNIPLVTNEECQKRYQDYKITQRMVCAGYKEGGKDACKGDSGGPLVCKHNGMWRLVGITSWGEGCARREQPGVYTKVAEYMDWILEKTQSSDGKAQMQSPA
T2 sequence (P03952 20-390 limits assumed): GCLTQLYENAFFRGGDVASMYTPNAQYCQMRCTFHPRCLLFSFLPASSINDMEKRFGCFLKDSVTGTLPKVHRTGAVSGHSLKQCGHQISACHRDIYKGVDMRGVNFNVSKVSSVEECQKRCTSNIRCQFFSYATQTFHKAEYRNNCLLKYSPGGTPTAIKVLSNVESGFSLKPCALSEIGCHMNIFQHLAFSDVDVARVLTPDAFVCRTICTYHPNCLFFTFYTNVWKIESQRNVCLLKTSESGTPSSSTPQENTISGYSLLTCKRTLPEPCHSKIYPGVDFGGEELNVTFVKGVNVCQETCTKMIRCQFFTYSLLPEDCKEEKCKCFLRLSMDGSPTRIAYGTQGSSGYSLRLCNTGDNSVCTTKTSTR
T1 sequence (P03952 20-390 limits assumed): as above
T1 sequence (P03952 391-638 limits assumed): as the sequence (P03952 391-638 limits assumed) above

On to `CCCc1nc(N2CC3CC3C2)ccc1Cn1cnc(C(=O)N[C@@H]2CCc3c2ncn3C)c1` (stereo partly drawn) [Example 31, 1-[(6-{3-Azabicyclo[3.1.0]hexan-3-yl}-2-propylpyridin-3-yl)methyl]-N-[(4R)-1-methyl-1H,4H,5H,6H-cyclopenta[d]imidazol-4-yl]-1H-imidazole-4-carboxamide], for which the negative logarithm of the IC50 (pIC50) is 8.28 on Human PKK and 6.01 in experiment [1].
Regarding `Cn1cnc2c1CC[C@H]2NC(=O)c1cn(Cc2ccc(N3CC4C(C3)C4(F)F)cc2C#N)cn1` (stereo partly drawn) [Example 210, 1-[(2-cyano-4-{6,6-difluoro-3-azabicyclo-[3.1.0]hexan-3-yl}phenyl)methyl]-N-[(4R)-1-methyl-1H,4H,5H,6H-cyclopenta[d]imidazol-4-yl]-1H-imidazole-4-carboxamide], the pIC50 was 9.40 at Human PKK and 6.89 in experiment [1].
Regarding `Cn1cnc2c1CC[C@H]2NC(=O)c1cn(Cc2ccc(N3CC4C(C3)C4(F)F)cc2F)cn1` (stereo partly drawn) [Example 212, 1-[(4-{6,6-difluoro-3-azabicyclo[3.1.0]hexan-3-yl}-2-fluorophenyl)methyl]-N-[(4R)-1-methyl-1H,4H,5H,6H-cyclopenta[d]imidazol-4-yl]-1H-imidazole-4-carboxamide], the values for the negative logarithm of the IC50 (pIC50) (against Human PKK; in experiment [1]) were 8.68 and 5.72, respectively.
Turning to `Cn1cnc2c1CC[C@H]2NC(=O)c1cn(Cc2ccc(N3CC4C(C3)C4(F)F)nc2)nn1` (stereo partly drawn) [Example 33, 1-[(6-{6,6-Difluoro-3-azabicyclo[3.1.0]hexan-3-yl}pyridin-3-yl)methyl]-N-[(4R)-1-methyl-1H,4H,5H,6H-cyclo-penta[d]imidazol-4-yl]-1H-1,2,3-triazole-4-carboxamide], the pIC50 at Human PKK was 8.60; in experiment [1], 6.58.
The matching figures for `Cn1cnc2c1CC[C@H]2NC(=O)c1cn(Cc2ccc(N3CC4CC4C3)cc2Br)cn1` (stereo partly drawn) [Example 204, 1-[(4-{3-azabicyclo[3.1.0]hexan-3-yl}-2-bromophenyl)methyl]-N-[(4R)-1-methyl-1H,4H,5H,6H-cyclopenta[d]imidazol-4-yl]-1H-imidazole-4-carboxamide]: 8.82 and 6.09.
For `COCc1nc(N2CC3CC3C2)ccc1Cn1cc(C(=O)N[C@@H]2CCc3c2ncn3C)nn1` (stereo partly drawn) [Example 92, 1-[(6-{3-Azabicyclo[3.1.0]hexan-3-yl}-2-(methoxymethyl)-pyridin-3-yl)methyl]-N-[(4R)-1-methyl-1H,4H,5H,6H-cyclo-penta[d]imidazol-4-yl]-1H-1,2,3-triazole-4-carboxamide] the same measures were 8.55 and 6.51.
The matching figures for `CCc1nc(N2CC3C(C2)C3(F)F)ccc1Cc1ccc(C(=O)N[C@@H]2CCc3c2ncn3C)o1` (stereo partly drawn) [Example 186, 5-[(6-{6,6-difluoro-3-azabicyclo[3.1.0]hexan-3-yl}-2-ethylpyridin-3-yl)methyl]-N-[(4R)-1-methyl-1H,4H,5H,6H-cyclopenta[d]imidazol-4-yl]furan-2-carboxamide]: 7.96 and 6.63.
Regarding `Cn1cnc2c1CC[C@H]2NC(=O)c1cnn(Cc2ccc(N3CC4CC4C3)nc2C(F)F)c1` (stereo partly drawn) [Example 43, 1-[(6-{3-Azabicyclo[3.1.0]hexan-3-yl}-2-(difluoromethyl)-pyridin-3-yl)methyl]-N-[(4R)-1-methyl-1H,4H,5H,6H-cyclopenta[d]imidazol-4-yl]-1H-pyrazole-4-carboxamide], the figures for the pIC50 (at Human PKK; in experiment [1]) were 9.05 and 6.51, respectively.
In the case of `C[C@H](O)c1nc(N2CC3CC3C2)ccc1Cn1cc(C(=O)N[C@@H]2CCc3c2ncn3C)cn1` (stereo partly drawn) [Example 83, 1-[(6-{3-Azabicyclo[3.1.0]hexan-3-yl}-2-[(1S)-1-hydroxy-ethyl]pyridin-3-yl)methyl]-N-[(4R)-1-methyl-1H,4H,5H,6H-cyclopenta[d]imidazol-4-yl]-1H-pyrazole-4-carboxamide], the pIC50 is 8.77 on Human PKK and 6.23 in experiment [1].
For `Cn1cnc2c1CC[C@H]2NC(=O)c1cn(Cc2ccc(N3CC4CC4C3)c(C#N)c2F)cn1` (stereo partly drawn) [Example 201, 1-[(4-{3-azabicyclo[3.1.0]hexan-3-yl}-3-cyano-2-fluorophenyl)methyl]-N-[(4R)-1-methyl-1H,4H,5H,6H-cyclopenta[d]imidazol-4-yl]-1H-imidazole-4-carboxamide] the same measures were 9.22 and 6.89.
Consider `Cc1c(Cn2cnc(C(=O)N[C@@H]3CCc4c3ncn4C)c2)cnc(N2CC3C(C2)C3(F)F)c1C#N` (stereo partly drawn) [Example 105, 1-[(5-Cyano-6-{6,6-difluoro-3-azabicyclo[3.1.0]-hexan-3-yl}-4-methylpyridin-3-yl)methyl]-N-[(4R)-1-methyl-1H,4H,5H,6H-cyclopenta-[d]imidazol-4-yl]-1H-imidazole-4-carboxamide], for which the values for the pIC50 (on Human PKK; in experiment [1]) were 9.30 and 6.93, respectively.
Take `COCc1nc(N2CC3C(C2)C3(F)F)ccc1Cn1cnc(C(=O)N[C@@H]2CCc3c2ncn3C)c1` (stereo partly drawn) [Example 95, 1-[(6-{6,6-Difluoro-3-azabicyclo[3.1.0]hexan-3-yl}-2-(methoxymethyl)pyridin-3-yl)methyl]-N-[(4R)-1-methyl-1H,4H,5H,6H-cyclopenta-[d]imidazol-4-yl]-1H-imidazole-4-carboxamide]: the pIC50 at Human PKK is 8.26; in experiment [1], 6.24.
The matching figures for `Cn1cnc2c1CC[C@H]2NC(=O)c1cnn(Cc2ccc(N3CC4CC4C3)nc2C(C)(C)O)c1` (stereo partly drawn) [Example 84, 1-[(6-{3-Azabicyclo[3.1.0]hexan-3-yl}-2-(2-hydroxypropan-2-yl)pyridin-3-yl)methyl]-N-[(4R)-1-methyl-1H,4H,5H,6H-cyclopenta[d]imidazol-4-yl]-1H-pyrazole-4-carboxamide]: 9.15 and 6.68.
The matching figures for `Cn1cnc2c1CC[C@H]2NC(=O)c1cnn(Cc2ccc(N3CC4(CC4)C3)nc2F)c1` [Example 12, 1-[(6-{5-Azaspiro[2.3]hexan-5-yl}-2-fluoropyridin-3-yl)methyl]-N-[(4R)-1-methyl-1H,4H,5H,6H-cyclopenta[d]imidazol-4-yl]-1H-pyrazole-4-carboxamide]: 8.47 and 6.10.
As for `COCc1nc(N2CC3(CC3)C2)ccc1Cn1cnc(C(=O)N[C@@H]2CCc3c2ncn3C)c1` [Example 77, 1-[(6-{5-Azaspiro[2.3]hexan-5-yl}-2-(methoxymethyl)-pyridin-3-yl)methyl]-N-[(4R)-1-methyl-1H,4H,5H,6H-cyclopenta[d]imidazol-4-yl]-1H-imidazole-4-carboxamide], the results for the pIC50 (on Human PKK; in experiment [1]) were 8.48 and 6.71, respectively.
Regarding `Cn1cnc2c1CC[C@H]2NC(=O)c1cnn(Cc2cnc(N3CC4CC4C3)cc2Cl)c1` (stereo partly drawn) [Example 99, 1-[(6-{3-Azabicyclo[3.1.0]hexan-3-yl}-4-chloropyridin-3-yl)methyl]-N-[(4R)-1-methyl-1H,4H,5H,6H-cyclopenta[d]imidazol-4-yl]-1H-pyrazole-4-carboxamide], the pIC50 at Human PKK is 8.43; in experiment [1], 5.66.
The matching figures for `Cc1nc(N2CC3CC3C2)ccc1Cn1cc(C(=O)N[C@@H]2CCc3c2ncn3C)c(CCO)n1` (stereo partly drawn) [Example 216, 1-[(6-{3-Azabicyclo[3.1.0]hexan-3-yl}-2-methylpyridin-3-yl)methyl]-3-(2-hydroxyethyl)-N-[(4R)-1-methyl-1H,4H,5H,6H-cyclopenta[d]imidazol-4-yl]-1H-pyrazole-4-carboxamide]: 8.92 and < 5.00.

In general, pIC50 refers to the negative decadic logarithm of the IC50, by convention in mol/L.
